Source: US12137687B2, “Method for inducing acquired resistance in a plant” (HEINRICH HEINE UNIVERSITAET DUESSELDORF, priority 2017, dated 2024)
Like-named read-outs stand apart in the source and are kept apart here.

Experiments:
[1] = tested on: Pseudomonas syringae pv maculicola ES4326 (Psm lux); format: in vivo
[2] = tested on: Hyaloperonospora arabidopsidis (Hpa) isolate Noco2; experiment: Arabidopsis thaliana resistance to Hpa after Pip/NHP pre-treatment (symptoms, Trypan blue microscopy); format: in vivo; conditions: for symptomology of leaves (photographs): 7 days after inoculation; for disease development in the SA-deficient mutant: sid2 mutant
[3] = tested on: Pseudomonas syringae pv. tabaci (DSM 1856); experiment: Tobacco (Nicotiana tabacum cv Xanthi) resistance to Pseudomonas tabaci after soil-applied Pip/NHP; conditions: for disease symptoms (yellowing and wilting) of infiltrated 1° leaves: tobacco 4-leaf stage, 40 ml of 1 mM (40 μmol) via soil 1 d prior to inoculation, 48 h after infection
Method: Plant pots with tobacco at the 4-leaf stage (BBCH growth stage 1004) were supplied with either 40 ml of H2O (mock-treatment; left) or 40 ml of 1 mM Pip or NHP (=40 μmol) 1 d prior to inoculation with a suspension (OD600=0.005, O/N-culture grown at 18° C.) of Pseudomonas tabaci via pressure infiltration. […] Infiltrated 1° leaves from representative plants were cut and photographed 48 h after the initial infection.

[4] = 1° leaves pressure-infiltrated with 1 mM NHP 24 h before inoculation

O=C(O)C1CCCCN1O (stereo not shown) [NHP, 1-hydroxypiperidine-2-carboxylic acid]
reduction of bacterial numbers, 2° leaves inoculated (systemic) [1, 4]: more than 15 fold
reduction of bacterial numbers, Psm lux infiltrated in the pre-treated 1° leaves (local) [1, 4]: about 8 fold
Resistance effect after NHP pre-treatment ([1]; Arabidopsis thaliana, Pseudomonas syringae): Yes
attenuation of Psm lux growth ([1]; Col-0, ald1, and fmo1 (all genotypes), 10 μmol via soil 1 d before inoculation, 60 hpi): at least one order of magnitude
chlorotic symptom development ([1]; Col-0, ald1, and fmo1, 10 μmol via soil, 72 hpi): lack of the chlorotic symptom development
reduction in bacterial numbers compared to mock-treated plants ([1]; Col-0, 10 μmol NHP via soil 1 day before infection, 54 h post inoculation): about 9 fold
reduction in bacterial numbers compared to mock-treated plants ([1]; Col-0, 10 μmol NHP via soil 3 days before infection, 54 h post inoculation): about 6 fold
reduction in bacterial numbers compared to mock-treated plants ([1]; Col-0, 10 μmol NHP via soil 7 days before infection, 54 h post inoculation): about 3 fold
further reduction of bacterial growth compared to plants treated with 10 μmol of NHP ([1]; Col-0, 100 μmol NHP per pot via soil, 54 h post inoculation): 2 fold
reduction of bacterial numbers compared to control plants ([1]; Col-0, 0.1 mM NHP (1 μmol/pot) via soil 24 h prior to Psm lux, 54 h post inoculation): about 2 fold
reduction of bacterial numbers compared to mock-treated plants ([1]; Col-0, 10 mM NHP (100 μmol per pot) via soil 24 h prior to Psm lux, 54 h post inoculation): about 20 fold
lower levels of bacteria in leaves compared to control plants ([1]; Col-0, 10 ml of 1 mM NHP (10 μmol per pot) via soil 24 h prior to Psm lux, 54 h post inoculation): about 11 fold
disease symptoms of leaves ([1]; Col-0, 10 ml of 1 mM NHP via soil 24 h prior to Psm lux): largely symptom-free
reduction of bacterial numbers in Psm lux-inoculated 1° leaves ([1]; Col-0, foliar spray of 1 mM NHP with 0.005% Silwet 24 h before inoculation, 54 h post inoculation): about 12 fold
difference in bacterial numbers between control and treated plants ([1]; Col-0 wild-type (experiment with sid2), 10 μmol via soil, 60 hpi): ten-fold difference
bacterial numbers in leaves lower than those of naive plants ([1]; SA-deficient sid2 mutant, 10 μmol via soil, 60 hpi): about 2.5 fold
Resistance effect after NHP pre-treatment ([2]; Arabidopsis thaliana, Hyaloperonospora arabidopsidis): Yes
symptomology of leaves (photographs) ([2]; Col-0, ald1, and fmo1, 10 μmol via soil): completely symptom-free
development of oospores ([2]; Col-0, 10 μmol via soil, 7 dpi): completely inhibited
examined leaves that fully prohibited the formation of intercellular hyphae ([2]; Col-0, 10 μmol via soil, 7 dpi): About 70%
macroscopic mildew symptoms ([2]; Col-0, 10 μmol via soil, 7 dpi): completely free of mildew symptoms
occurrence/development of conidiophores on leaves ([2]; Col-0, 10 μmol via soil, 7 dpi): completely inhibited
disease development in the SA-deficient mutant ([2]; 10 μmol via soil): not able to fully prevent disease development
Resistance effect after NHP pre-treatment ([3]; Nicotiana tabacum cv. Xanthi, Pseudomonas syringae pv. tabaci (DSM 1856)): Yes
disease symptoms (yellowing and wilting) of infiltrated 1° leaves [3]: almost absent

O=C(O)[C@@H]1CCCCN1 [Pip, (S)-piperidine-2-carboxylic acid]
bacterial multiplication in leaves of treated compared with control plants ([1]; Col-0 and ald1, 10 μmol via soil 1 d before Psm lux, 60 hpi): ten-fold lower
chlorotic leaf symptoms ([1]; Col-0 and ald1, 10 μmol via soil, 72 hpi): suppression of the development of chlorotic leaf symptoms
average length of intercellular hyphae growing inside leaves ([2]; Col-0, 10 μmol via soil 24 h before Hpa, 7 dpi): about 50 mm cm^−2
development of oospores ([2]; Col-0, 10 μmol via soil, 7 dpi): fully prevented
intercellular hyphae closely encased by dead host cells (trailing necrosis) ([2]; Col-0, 10 μmol via soil, 7 dpi): about 60%
length of intercellular hyphae as share of the value for non-pretreated Col-0 plants ([2]; Col-0, 10 μmol via soil, 7 dpi): ~10%
macroscopic mildew symptoms ([2]; Col-0, 10 μmol via soil, 7 dpi): largely symptom-free
occurrence/development of conidiophores on leaves ([2]; Col-0, 10 μmol via soil, 7 dpi): greatly diminished
symptomology of leaves (photographs) ([2]; Col-0 and ald1, 10 μmol via soil): only sporadically show small areas of visible mildew symptoms
effect on the resistance of fmo1 to Hpa ([2]; fmo1 mutant, 10 μmol via soil): no effect
disease development in the SA-deficient mutant ([2]; 10 μmol via soil): not able to fully prevent disease development
disease symptoms (yellowing and wilting) of infiltrated 1° leaves [3]: severely reduced
